Here are results for ten molecules from patent publication US20040126437A1, “Typing natural products” (priority 2000, published 2004).

≈ marks a conversion by molar mass, not a printed value.

Experiment [1] relates to Staphylococcus aureus. The experiment is described as follows: Antibacterial activity, inhibition halos in culture. Format: cell-based. The following applies: for Antibacterial activty, inhibition halo: Staphylococcus aureus culture. The text has this:
(§1) The insulated compounds DCBEN, DHCA, E and mixture of E+DPB have their antibacterial properties tested in cultures of E.coli, Pseudomonas aeruginosa, Staphylococcus aureus and Streptococcus faecalis. Inhibition halos (in mm) and the obtained data recorded as in FIG. 1.
(§2) Antibacterial activity of the compounds K, G1, G2 e L2 has been evaluated in cultures of E.coli, Pseudomonas aeruginosa, Staphylococcus aureus and Streptococcus faecalis. Inhibition halos have been measured (mm) and the data recorded as in FIG. 1. S.aureus, S.faecalis e E.coli, are sensitive to the tested compounds, just varying the halos, the compound G2 has the most toxity in cultures of S.aureus e S.faecalis. None of the tested compounds had effect in P.aeruginosa.

In experiment [2] the test system is Streptococcus faecalis. The experiment is described as above. The conditions noted are these: for Antibacterial activty, inhibition halo: Streptococcus faecalis culture. Type of experiment: cell-based.
Source text: as §1, §2

The test system of experiment [3] is Escherichia coli. The description is as above. Format: cell-based. The following applies: for Antibacterial activty, inhibition halo: Escherichia coli culture.
Source text: as §1, §2

Experiment [4] deals with Pseudomonas aeruginosa. Described as above. Type of experiment: cell-based.
Source text: as §1, §2

The subject of experiment [5] is T. cruzi trypomastigotes. The experiment is described as follows: Effects against T. cruzi trypomastigotes cultures. Format: cell-based, Trypanosoma cruzi. The method, then:
FIG. 2 are recorded ID50 data related to trypomastigotes cultures (one of the growing stages of Trypanosoma cruzi (T.cruzi)) also to the compounds DCBEN, DHCA, E and mixture E+DPB and the effects of said compounds extracted from propolis trypomastigotes of T.cruzi (in mg/mL). […] The same result for Violet Crystal is 0.205 mg/mL, as previously mentioned. The results for insulated compounds are greater than the Violet Crystal.

Experiment [6] deals with insulated cavy trachea (ICT). The conditions noted are these: ICT contracted with hystamine (1 μM), cited from earlier work; for Emax, tension: relaxation.
Experiment [7] concerns Staphylococcus epidermidis. The conditions noted are these: cited from earlier work.
Experiment [8] relates to A.benhamiae. The conditions noted are these: cited from earlier work.
Experiment [9] concerns Staphylococcus aureus. The following applies: cited from earlier work.
The subject of experiment [10] is Pseudomonas aeruginosa. The following applies: cited from earlier work.
Experiment [11] relates to Corynebacterium equii. The following applies: cited from earlier work.
In experiment [12] the test system is Thermoactinomyces intermedius. The conditions noted are these: cited from earlier work.
In experiment [13] the test system is B.subtilis. The following applies: cited from earlier work.
The subject of experiment [14] is Microsporeum gypseum. The following applies: cited from earlier work.
Experiment [15] deals with Mycobaterium phlei. The conditions noted are these: cited from earlier work.
The subject of experiment [16] is uterus colon carcinoma (line L5-26). The following applies: uterus colon carcinoma line L5-26; cited from earlier work.
Experiment [17] has as its system Mycobacterium smegmatis. The conditions noted are these: cited from earlier work.
For experiment [18], the system named is fibrosarcoma (line HT-1080). The following applies: fibrosarcoma line HT-1080; cited from earlier work.
The subject of experiment [19] is Micrococcus lysodeikticus. The conditions noted are these: cited from earlier work.
For experiment [20] the following is noted: insulated labdan acids; cited from earlier work.

In the case of `COc1cc(C=CC=O)ccc1O` [Compound G2, 3-methoxy-4-hydroxycinnamaldehyde], the “Antibacterial effect in words” value in experiment [1] (S.aureus culture) and in experiment [2] (S.faecalis culture) was “most toxity” each time. In addition, the “Antibacterial activty, inhibition halo” value in experiment [1] was “++ (++ halo > or = to 8 mm and < 12 mm)”; in experiment [2], “++ (++ halo > or = to 8 mm and < 12 mm)”; in experiment [3], “+ (+ halo < or = to 8 mm)”; in experiment [4] it was “Ø”.

Take `CC1(C)C=Cc2cc(C=CC(=O)O)ccc2O1` [DCBEN, 2,2-Dimethyl-6-carboxiethenyl-2H-1-benzopyran]: the ID50/24 h in experiment [5] came out at 1696 ± 32 µg/mL (≈ 7370 µM). The “Antibacterial activty, inhibition halo” value in [1] was “++ (++ halo > or = to 8 mm and < 12 mm)”; in [2] it was “++ (++ halo > or = to 8 mm and < 12 mm)”; in [3] it was “+ (+ halo < or = to 8 mm)”; in experiment [4] it was “Ø”. Also, in experiment [6] (read-out: CE50 (the source's name)), the EC50 is 250 nM. In experiment [6], the “Emax, tension” value was 0.80 ± 0.05 g.

On to `CC(C)=CCc1cc(C=CC(=O)O)ccc1O` [PHCA, 3-prenyl-4-hydroxycinnamic acid], for which the “Emax, tension” value in experiment [6] was 1.258 ± 84 g.

For orientation: MIC means the lowest concentration found to suppress growth. Turning to `CC(C)=CCc1cc(C=CC(=O)O)cc(CC=C(C)C)c1O` [DHCA, 3,5-diprenyl-4-hydroxycinnamic acid], the CIM is 62.5 µg/mL in [7], 31.3 μg/m/L in [11], 31.3 µg/mL in [13] and 31.3 µg/mL in experiment [19]. In experiment [5], the ID50/24 h turned out to be 932 ± 46 µg/mL (≈ 3100 µM). Also, the “Antibacterial activty, inhibition halo” value was “+ (+ halo < or = to 8 mm)” in experiment [1], “+ (+ halo < or = to 8 mm)” in experiment [2], “Ø” in experiment [3] and “Ø” in experiment [4]. Besides, in experiment [3] (E.coli culture), the “Antibacterial effect in words” value is recorded as “did not present inhibition activity”. Moreover, the MIC is 15,6 μg/mL in experiment [8]; 62.5 µg/mL (≈ 208 µM) in experiment [9]; 31.3 µg/mL (≈ 104 µM) in experiment [10]; 62.5 µg/mL (≈ 208 µM) in [12]; 7,8 μg/mL in [14]; 62.5 µg/mL (≈ 208 µM) in experiment [15]. Moreover, in [17], the MIC was 31.3 µg/mL (≈ 104 µM). In addition, the “ED50 (cytotoxic dosage—50%)” value in experiment [16] is 59,32 μg/mL; in experiment [18], 45.47 µg/mL (≈ 151 µM).

On to “2-[1-hydroxymethyl]vinyl-6-acetyl-5-hydroxy-coumaran”, for which the “Emax, tension” value in experiment [6] is 1.06 ± 0.09 g.

On to `COc1cc(C=O)ccc1O` [Compound G1], for which the “Antibacterial activty, inhibition halo” value is listed as “+ (+ halo < or = to 8 mm)” in [1], “+ (+ halo < or = to 8 mm)” in [2], “+ (+ halo < or = to 8 mm)” in [3] and “Ø” in experiment [4].

With `CC(C)=CCc1cc(C=CC(=O)O)cc2c1OC(C)(C)C=C2` [E], the “Antibacterial activty, inhibition halo” value was “+ (+ halo < or = to 8 mm)” in [1], “+ (+ halo < or = to 8 mm)” in experiment [2], “+ (+ halo < or = to 8 mm)” in [3] and “Ø” in [4].

For `C=C1CC[C@@H]2[C@](C)(CCC[C@]2(C)C(=O)O)[C@H]1CC/C(C)=C/CO` [[b], isocupressic acid], the “Antibacterial activity by bioautography” value in experiment [20] was “most active”.

Take `C=C1CC[C@@H]2[C@](C)(CCC[C@]2(C)C(=O)O)[C@H]1CC[C@H](C)CCO` [[d], imbricatoloic acid]: in experiment [20], the “Antibacterial activity by bioautography” value was “most active”.

As for `CN(C)c1ccc(C(=C2C=CC(=[N+](C)C)C=C2)c2ccc(N(C)C)cc2)cc1.[Cl-]` [Cristal violet, reference compound], the ID50/24 h in experiment [5] is 205 µg/mL.
